Measurements reported in patent publication US8629157B2, “Pyrrolidine compounds which modulate the CB2 receptor” (Boehringer Ingelheim International GmbH, priority 2009, dated 2014).

Each compound was assayed against human CB2R (Homo sapiens, UniProt P34972) (assay: CB2R mediated modulation of cAMP synthesis). Conditions: not given.
Type: cell-based
Method in brief: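 CHO cells expressing human CB2R were treated 30 min at 37° C. with compounds in buffer containing 1 mM IBMX, 0.25% BSA and 10 uM forskolin; cAMP in lysates was measured by DiscoverX-XS kit.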

Sequence of human CB2R (P34972 whole entry): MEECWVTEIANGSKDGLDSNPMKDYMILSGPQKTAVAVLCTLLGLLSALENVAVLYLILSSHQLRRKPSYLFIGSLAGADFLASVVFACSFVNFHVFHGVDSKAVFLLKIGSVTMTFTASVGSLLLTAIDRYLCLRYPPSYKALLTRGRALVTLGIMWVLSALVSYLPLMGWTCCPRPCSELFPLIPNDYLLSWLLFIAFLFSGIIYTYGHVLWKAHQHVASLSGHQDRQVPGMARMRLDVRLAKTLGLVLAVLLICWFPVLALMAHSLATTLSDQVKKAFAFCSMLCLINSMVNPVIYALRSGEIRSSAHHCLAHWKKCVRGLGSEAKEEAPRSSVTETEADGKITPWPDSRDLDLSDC

| Compound | EC50 |
| --- | --- |
| O=C(Nc1nc(C2CCCCC2)cs1)[C@@H]1CCCN1c1ccc(Cl)cc1 [(S)-1-(4-Chloro-phenyl)-pyrrolidine-2-carboxylic acid (4-cyclohexyl-thiazol-2-yl)-amide] | 35.5 nM |
| O=C(Nc1nc(C2CC2)cs1)[C@@H]1CCCN1c1ccc(Cl)cc1 [(S)-1-(4-Chloro-phenyl)-pyrrolidine-2-carboxylic acid (4-cyclopropyl-thiazol-2-yl)-amide] | 36.1 nM |
| CCc1ccnc(NC(=O)[C@@H]2CCCN2c2ccc(Cl)cc2)c1 [(S)-1-(4-Chloro-phenyl)-pyrrolidine-2-carboxylic acid (4-ethyl-pyridin-2-yl)-amide] | 1.2 nM |
| O=C(Nc1ccc(F)c(C(F)(F)F)c1)[C@@H]1CCCN1c1ccc(Cl)cc1 [(S)-1-(4-Chloro-phenyl)-pyrrolidine-2-carboxylic acid (4-fluoro-3-trifluoromethyl-phenyl)-amide] | 19.1 nM |
| CC(C)(C)c1nc(NC(=O)[C@@H]2CCCN2c2ccc(Cl)cc2)sc1C#N [(S)-1-(4-Chloro-phenyl)-pyrrolidine-2-carboxylic acid (4-tert-butyl-5-cyano-thiazol-2-yl)-amide] | 31.7 nM |
| CC(C)(C)C1CCC(NC(=O)[C@@H]2CCCN2c2ccc(Cl)cc2)CC1 (stereo partly drawn) [(S)-1-(4-Chloro-phenyl)-pyrrolidine-2-carboxylic acid (4-tert-butyl-cyclohexyl)-amide] | 7.42 nM |
| CC(C)(C)c1csc(NC(=O)[C@@H]2CCCN2c2ccc(Cl)cc2)n1 [(S)-1-(4-Chloro-phenyl)-pyrrolidine-2-carboxylic acid (4-tert-butyl-thiazol-2-yl)-amide] | 30.1 nM |
| O=C(Nc1nc(C(F)(F)F)co1)[C@@H]1CCCN1c1ccc(Cl)cc1 [(S)-1-(4-Chloro-phenyl)-pyrrolidine-2-carboxylic acid (4-trifluoromethyl-oxazol-2-yl)-amide] | 5.79 nM |
| O=C(Nc1cc(C(F)(F)F)ccn1)[C@@H]1CCCN1c1ccc(Cl)cc1 [(S)-1-(4-Chloro-phenyl)-pyrrolidine-2-carboxylic acid (4-trifluoromethyl-pyridin-2-yl)-amide] | 23.4 nM |
| O=C(Nc1nc(C(F)(F)F)cs1)[C@@H]1CCCN1c1ccc(Cl)cc1 [(S)-1-(4-Chloro-phenyl)-pyrrolidine-2-carboxylic acid (4-trifluoromethyl-thiazol-2-yl)-amide] | 89.2 nM |
| CC1(C)CC(=O)C=C(NC(=O)[C@@H]2CCCN2c2ccc(Cl)cc2)C1 [(S)-1-(4-Chloro-phenyl)-pyrrolidine-2-carboxylic acid (5,5-dimethyl-3-oxo-cyclohex-1-enyl)-amide] | 17.9 nM |
| O=C(Nc1nc2cc(Cl)ccc2[nH]1)[C@@H]1CCCN1c1ccc(Cl)cc1 [(S)-1-(4-Chloro-phenyl)-pyrrolidine-2-carboxylic acid (5-chloro-1H-benzimidazol-2-yl)-amide] | 2.16 nM |
| Cc1ccc(NC(=O)[C@@H]2CCCN2c2ccc(Cl)cc2)nc1 [(S)-1-(4-Chloro-phenyl)-pyrrolidine-2-carboxylic acid (5-methyl-pyridin-2-yl)-amide] | 120 nM |
| O=C(Nc1nnc(-c2ccccc2)s1)[C@@H]1CCCN1c1ccc(Cl)cc1 [(S)-1-(4-Chloro-phenyl)-pyrrolidine-2-carboxylic acid (5-phenyl-1,3,4-thiadiazol-2-yl)-amide] | 11.2 nM |
| CC(C)(C)c1nnc(NC(=O)[C@@H]2CCCN2c2ccc(Cl)cc2)s1 [(S)-1-(4-Chloro-phenyl)-pyrrolidine-2-carboxylic acid (5-tert-butyl-1,3,4-thiadiazol-2-yl)-amide] | 0.098 nM |
| O=C(Nc1ccc(C(F)(F)F)cn1)[C@@H]1CCCN1c1ccc(Cl)cc1 [(S)-1-(4-Chloro-phenyl)-pyrrolidine-2-carboxylic acid (5-trifluoromethyl-pyridin-2-yl)-amide] | 35.1 nM |
| O=C(Nc1cccc(C(F)(F)F)n1)[C@@H]1CCCN1c1ccc(Cl)cc1 [(S)-1-(4-Chloro-phenyl)-pyrrolidine-2-carboxylic acid (6-trifluoromethyl-pyridin-2-yl)-amide] | 48.8 nM |
| O=C(NC1CCOCC1)[C@@H]1CCCN1c1ccc(Cl)cc1 [(S)-1-(4-Chloro-phenyl)-pyrrolidine-2-carboxylic acid (tetrahydro-pyran-4-yl)-amide] | 254 nM |
| O=C(NCC1CCOCC1)[C@@H]1CCCN1c1ccc(Cl)cc1 [(S)-1-(4-Chloro-phenyl)-pyrrolidine-2-carboxylic acid (tetrahydro-pyran-4-ylmethyl)-amide] | 415 nM |

| Compound | EC50 |
| --- | --- |
| CC(Cc1ccc(Cl)cc1)NC(=O)[C@@H]1CCCN1c1ccc(Cl)cc1 (stereo partly drawn) [(S)-1-(4-Chloro-phenyl)-pyrrolidine-2-carboxylic acid [2-(4-chloro-phenyl)-1-methyl-ethyl]-amide] | 270 nM |
| O=C(NCCC1CCOCC1)[C@@H]1CCCN1c1ccc(Cl)cc1 [(S)-1-(4-Chloro-phenyl)-pyrrolidine-2-carboxylic acid [2-(tetrahydro-pyran-4-yl)-ethyl]-amide] | 105 nM |
| CC(C)(CO)c1cc(NC(=O)[C@@H]2CCCN2c2ccc(Cl)cc2)on1 [(S)-1-(4-Chloro-phenyl)-pyrrolidine-2-carboxylic acid [3-(2-hydroxy-1,1-dimethyl-ethyl)-isoxazol-5-yl]-amide] | 0.378 nM |
| O=C(Nc1nc(-c2ccc(Cl)cc2)cs1)[C@@H]1CCCN1c1ccc(Cl)cc1 [(S)-1-(4-Chloro-phenyl)-pyrrolidine-2-carboxylic acid [4-(4-chloro-phenyl)-thiazol-2-yl]-amide] | 84.9 nM |
| O=C(Nc1nc(-c2ccc(F)cc2)cs1)[C@@H]1CCCN1c1ccc(Cl)cc1 [(S)-1-(4-Chloro-phenyl)-pyrrolidine-2-carboxylic acid [4-(4-fluoro-phenyl)-thiazol-2-yl]-amide] | 115 nM |
| CC(C)(C)c1cc(NC(=O)[C@@H]2CCC(=O)N2c2ccc(C#N)c(F)c2)no1 [(S)-1-(4-Cyano-3-fluoro-phenyl)-5-oxo-pyrrolidine-2-carboxylic acid (5-tert-butyl-isoxazol-3-yl)-amide] | 78.5 nM |
| CC(C)(C)c1cc(NC(=O)[C@@H]2CCCN2Cc2ccc(OC(F)F)cc2)on1 [(S)-1-(4-Difluoromethoxy-benzyl)-pyrrolidine-2-carboxylic acid (3-tert-butyl-isoxazol-5-yl)-amide] | 8.04 nM |
| CC(C)(C)c1cc(NC(=O)[C@@H]2CCC(=O)N2c2ccc(C(F)F)cc2)on1 [(S)-1-(4-Difluoromethyl-phenyl)-5-oxo-pyrrolidine-2-carboxylic acid (3-tert-butyl-isoxazol-5-yl)-amide] | 15.2 nM |
| CCc1ccc(N2C(=O)CC[C@H]2C(=O)Nc2cc(C(C)(C)C)no2)cc1 [(S)-1-(4-Ethyl-phenyl)-5-oxo-pyrrolidine-2-carboxylic acid (3-tert-butyl-isoxazol-5-yl)-amide] | 173 nM |
| Cc1cc(N2C(=O)CC[C@H]2C(=O)Nc2cc(C(C)(C)C)no2)ccc1F [(S)-1-(4-Fluoro-3-methyl-phenyl)-5-oxo-pyrrolidine-2-carboxylic acid (3-tert-butyl-isoxazol-5-yl)-amide] | 91.2 nM |
| Cc1cc(N2C(=O)CC[C@H]2C(=O)Nc2cc(C(C)(C)C)on2)ccc1F [(S)-1-(4-Fluoro-3-methyl-phenyl)-5-oxo-pyrrolidine-2-carboxylic acid (5-tert-butyl-isoxazol-3-yl)-amide] | 362 nM |
| CC(C)(C)c1cc(NC(=O)[C@@H]2CCCN2Cc2ccc(F)cc2)on1 [(S)-1-(4-Fluoro-benzyl)-pyrrolidine-2-carboxylic acid (3-tert-butyl-isoxazol-5-yl)-amide] | 0.747 nM |
| CC(C)(C)c1cc(NC(=O)[C@@H]2CCC(=O)N2c2ccc(CF)cc2)on1 [(S)-1-(4-Fluoromethyl-phenyl)-5-oxo-pyrrolidine-2-carboxylic acid (3-tert-butyl-isoxazol-5-yl)-amide] | 55.8 nM |
| CC(C)c1ccc(N2C(=O)CC[C@H]2C(=O)Nc2cc(C(C)(C)C)no2)cc1 [(S)-1-(4-Isopropyl-phenyl)-5-oxo-pyrrolidine-2-carboxylic acid (3-tert-butyl-isoxazol-5-yl)-amide] | 159 nM |
| CC(C)(C)c1cc(NC(=O)[C@@H]2CCCN2S(=O)(=O)c2ccc(S(C)(=O)=O)cc2)no1 [(S)-1-(4-Methanesulfonyl-benzenesulfonyl)-pyrrolidine-2-carboxylic acid (5-tert-butyl-isoxazol-3-yl)-amide] | 183 nM |
| COc1ccc(N2C(=O)CC[C@H]2C(=O)Nc2cc(C(C)(C)C)no2)cc1 [(S)-1-(4-Methoxy-phenyl)-5-oxo-pyrrolidine-2-carboxylic acid (3-tert-butyl-isoxazol-5-yl)-amide] | 163 nM |
| CC(C)(C)c1cc(NC(=O)[C@@H]2CCCN2S(=O)(=O)c2ccc(C(F)(F)F)cc2)no1 [(S)-1-(4-Trifluoromethyl-benzenesulfonyl)-pyrrolidine-2-carboxylic acid (5-tert-butyl-isoxazol-3-yl)-amide] | 222 nM |
| O=C(Nc1ccc(C(F)(F)F)cn1)[C@@H]1CCCN1c1ccc(C(F)(F)F)cc1 [(S)-1-(4-Trifluoromethyl-phenyl)-pyrrolidine-2-carboxylic acid (5-trifluoromethyl-pyridin-2-yl)-amide] | 15.5 nM |
| CC(C)(C)c1cc(NC(=O)[C@@H]2CCC(=O)N2c2ccc(C#N)cc2)no1 [(S)-1-(4-cyano-phenyl)-5-oxo-pyrrolidine-2-carboxylic acid (5-tert-butyl-isoxazol-3-yl)-amide] | 59.9 nM |

Same assay, conditions: CHO cells expressing human CB2R; inhibition of forskolin-stimulated cAMP synthesis; mean; read-out: CB2 CAMP @ EC50 nM (mean)

| EC50 | Compound |
| --- | --- |
| 12.7 nM | O=C(Nc1nc2c(s1)CCCC2)[C@@H]1CCCN1c1ccc(Cl)cc1 [(S)-1-(4-Chloro-phenyl)-pyrrolidine-2-carboxylic acid (4,5,6,7-tetrahydro-benzothiazol-2-yl)-amide] |
| 498 nM | Cc1nonc1CNC(=O)[C@@H]1CCCN1c1ccc(Cl)cc1 [(S)-1-(4-Chloro-phenyl)-pyrrolidine-2-carboxylic acid (4-methyl-furazan-3-ylmethyl)-amide] |

| Compound | EC50 |
| --- | --- |
| CC(C)(C)c1cc(NC(=O)[C@@H]2CCC(=O)N2c2ccc(C#N)c(F)c2)on1 [(S)-1-(4-Cyano-3-fluoro-phenyl)-5-oxo-pyrrolidine-2-carboxylic acid (3-tert-butyl-isoxazol-5-yl)-amide] | 286 nM |
